Measured values as given in patent US8895561B2, “Compounds and methods for treating candidiasis and aspergillus infections” (Cellceutix Corporation, priority 2012, dated 2014).
Where two headings read alike, the source gives them in different places.

Experiments:
[1] = test system: C. albicans (clinical isolate GDH2346); assay: Mouse model of oral candidiasis; assay type: in vivo, mice
Experimental: To examine the activity of Compound 100 in vivo, an oral model of Candida infection was established in C57B1/6 mice. Animals were first treated for 5 days with oral tetracycline to reduce normal oral flora. An infection was initiated in the mice by inoculating a 50 μL suspension of C. albicans onto lightly scored tongues. This led to colonization of the tongues by days 2 to 4 after inoculation as measured by histological analysis and by recovery of viable colonies upon homogenization. Topical treatment of the infections on day 3 with a single 50 μL dose of a 1 mg/mL compound solution in a neutral hydrogel was sufficient to reduce the total colony counts by greater than 10-fold, equivalent to a similar treatment with an equivalent concentration of Nystatin suspension. […] 8-week old male mBD-1(−/−) mice on a C57B1/6 background were pre-treated for 5 days with 2.5 mg/mL oral tetracycline to reduce normal oral flora (n=5 per group; n=4 for nystatin group). Day 0: infection initiated by oral inoculation of a 50 μL suspension of C. albicans (clinical isolate GDH2346 at 5×10^7 cfu/mL) onto a cotton ball after lightly scoring the tongues. Day 3: Single topical administration of test agent (10 mg/mL) applied in 0.05 mL hydrogel. Tissue was harvested 24 hours post-treatment, homogenized, and quantitated by serial dilution and plating.

[2] = test system: C. albicans mature biofilms; assay: Metabolic activity of mature biofilms grown at an air-liquid interface; assay type: cell-based
[3] = test system: C. albicans (GDH2346) hyphae; assay: Activity against hyphae, Live-Dead stain fluorescence microscopy; assay type: cell-based; settings: 8 μg/mL, 15 to 60 minutes
Experimental: C. albicans (GDH2346) was grown in 10% FCS for 3 days to achieve hyphae. Hyphae were treated with Compound 100 (8 μg/mL) for 0 minutes (see, FIG. 2A), 15 minutes (see, FIG. 2B), 30 minutes (see, FIG. 2C), or 60 minutes (see, FIG. 2D). Cultures were stained with FungaLight Live-Dead stain (InVitrogen) and observed under fluorescence microscopy (100× magnification).

[4] = test system: C. albicans GDH2346; assay: Cellular efflux, ATP release by luciferase assay; assay type: cell-based
Experimental: (A) C. albicans GDH2346 was treated with either Compound 100 or histatin 5 for 30 minutes, followed by the separation of the extracellular medium and the cells. Intracellular and extracellular ATP levels were quantified by luciferase assay and measurement in a luminometer, relative to a standard control. Treatment 1=no treatment; Treatment 2=16 μg/mL Compound 100; Treatment 3=32 μg/mL Compound 100; and Treatment 4=Histatin 5 (1 mg/mL). (B) Time dependent release of ATP of cells treated with Compound 100 at 32 μg/mL. (C) Dose response of cells treated for 30 minutes, followed by quantification of extracellular ATP.

[5] = test system: C. albicans; assay: Mouse Candida sepsis model, kidney burden; assay type: in vivo; settings: neutropenic mice, IV 1 hour after infection, kidneys at 24 hours
Experimental: Mice were made neutropenic with i.p. injections of cyclophosphamide (150 mg/kg in 10 mL/kg) at 4 and 1 day before inoculation. Each animal was then inoculated by injecting 0.1 mL of inoculum of C. albicans in a tail vein. The standard was administered orally and the test compounds by IV 1 hour after infection. The kidneys were collected from four mice in Group 1 at 1 hour after infection and from the remaining mice in the study at 24 hours after infection. Kidneys were combined in a sterile tube. An aliquot of sterile PBS were added to each tube and the contents homogenized with a tissue homogenizer. Serial dilutions of the tissue homogenates were conducted, 0.1 mL aliquots were spread on SDA plates and the plates incubated at 35° C. overnight. The CFU/kidneys were determined from colony counts. One-way ANOVA with Bonferroni Multiple Comparisons Test was performed using GraphPad InStat version 3.00 for Windows 95, GraphPad Software, San Diego Calif. USA.

[6] = test system: C. albicans; assay: Disseminated candidiasis model, survival study; assay type: in vivo; settings: neutropenic mice
Experimental: Mice were made neutropenic with i.p. injections of cyclophosphamide (150 mg/kg in 10 mL/kg) at 4 and 1 day before inoculation. Each animal was then inoculated by injecting 0.1 mL of inoculum of C. albicans in a tail vein. At 2 hours post-infection, the standard was administered orally and the test compound by IV. Compounds were dosed once daily for 4 days.
The kidneys were collected from four mice in Group 1 at 2 hours after infection, from four mice in Groups 2-5 at five days after infection, and from all surviving mice in the infected treatment groups. An aliquot of sterile PBS were added to each tube and the contents homogenized with a tissue homogenizer. Serial dilutions of the tissue homogenates were conducted, 0.1 mL aliquots were spread on SDA plates and the plates incubated at 35° C. overnight. The CFU/kidneys were determined from colony counts.
Survival data was analyzed using the log-rank (Mantel-Cox) test and one-way ANOVA with Tukey's Multiple Comparisons Test was performed on the yeast density and change in body weight data (GraphPad InStat version 5.04).

[7] = Cytotoxicity, MTS viability assay; assay type: cell-based, human; settings: Table 6
How it was run: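 Cytotoxicity in mouse 3T3 fibroblasts and human HepG2 liver cells measured by MTS viability assay. Values reported as EC50.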

Q: Which results are given for NCCSc1cc(SCCN)c(C(F)(F)F)cc1NC(=O)c1cc(C(=O)Nc2cc(C(F)(F)F)c(SCCN)cc2SCCN)ncn1 [Compound 100]?
A: reduction of total colony counts ([1]; single 50 μL dose of 1 mg/mL solution in neutral hydrogel, day 3, C57B1/6 mice): greater than 10 fold; efficacy relative to Nystatin ([1]; single topical dose 10 mg/mL in 0.05 mL hydrogel on day 3, tongue harvested 24 hours post-treatment): 50 fold; effect on infected tongue burden ([1]; single topical dose 10 mg/mL in hydrogel): nearly sterilized the infected tongue; metabolic activity in mature biofilms [2]: significant reduction of metabolic activity; death of hyphal cultures [3]: rapidly caused death of hyphal cultures at low concentrations; time to significant extracellular ATP accumulation ([4]; 32 μg/mL): ≤ 20 min; ATP efflux (intracellular vs extracellular ATP) ([4]; 32 μg/mL, 30 minutes): almost all of the ATP from the cell was extracellular; concentration with detectable extracellular ATP levels ([4]; 30 minutes of exposure): 16 µg/mL

Q: Which “reductions in tissue burden from treatment onset” value [5] does the source give for NCCCOc1cc(OCCCN)cc(-c2ccc3c(c2)c2cc(-c4cc(OCCCN)cc(OCCCN)c4)ccc2n3CCCN)c1 [Compound 135] here?
A: ≥ 1.5 log10

Q: What about the “survival over a 14-day period, p between Fluconazole and compound” value ([6]; 10 mg/kg IV once daily for 4 days) of the same molecule?
A: < 0.01

Q: What about the “survival over a 14-day period, p between Fluconazole and compound” value ([6]; 15 mg/kg IV once daily for 4 days) of the same molecule?
A: < 0.01

Q: For N=C(N)N1CCN(c2ccc(-c3cc(-c4ccc(N5CCN(C(=N)N)CC5)cc4)ncn3)cc2)CC1 [Compound 136], which EC50 ([7]; human, HepG2 cells (transformed liver), read-out: Cytotoxicity EC50 Human HepG2) is on record?
A: 453 µM

Q: And the EC50 ([7]; mouse, 3T3 fibroblasts, read-out: Cytotoxicity EC50 Mouse 3T3)?
A: 311 µM
